Legend:
Assay type in all cases: physicochemical
[1] = Solubility test of compound in safe solvent; settings: 23° C., visual
Description: (2) Solubility Test of Compound in Safe Solvent
(§1) The solubility of the compound in PGME and PGMEA was evaluated according to the following standard using the dissolution amount in each solvent. For the measurement of the dissolution amount, the compound was precisely weighed in a test tube at 23° C.; and the target solvent was added to the compound so that a predetermined concentration of the liquid to be obtained was set; a ultrasonic wave was applied to the liquid in an ultrasonic washing machine for 30 minutes; and the state of the resulting liquid was visually evaluated.
A: 5.0% by weight≦dissolution amount
B: 3.0% by weight≦dissolution amount<5.0% by weight
C: dissolution amount<3.0% by weight

[2] = Solubility of compound in methyl ethyl ketone (MEK); settings: dissolution amount in MEK at 23° C., visual
Description: (1) Solubility of Compound in Methyl Ethyl Ketone (MEK)
as §1, with “MEK” for “PGME and PGMEA”, “MEK at 23° C.” for “each solvent.”
Evaluation A: 50% by weight or more
Evaluation B: 10% by weigh or more and less than 50% by weight
Evaluation C: less than 10% by weight

[3] = Glass transition temperature by DSC; settings: 10° C./min to 300° C., second heating after quench, nitrogen gas stream
Description: (4) Glass Transition Temperature
The apparatus EXSTAR6000DSC (trade name) manufactured by SII NanoTechnology Inc. was used. About 5 mg of each sample was placed in a non-sealed container made of aluminum, and the temperature was raised to 300° C. at the rate of temperature rise of 10° C./min in a nitrogen gas stream (30 mL/min). After the non-sealed container made of aluminum was quenched, again the temperature was raised to 300° C. at the rate of temperature rise of 10° C./min in a nitrogen gas stream (30 mL/min), thereby performing DSC measurement. The temperature corresponding to the middle point (where the specific heat was changed into the half) of a region in which a discontinuous portion appeared in the baseline was defined as the glass transition point.

[4] = Thermal decomposition temperature by DSC; settings: 10° C./min to 500° C., nitrogen gas stream
Description: (3) Thermal Decomposition Temperature
The apparatus EXSTAR6000DSC (trade name) manufactured by SII NanoTechnology Inc. was used. About 5 mg of each sample was placed in a non-sealed container made of aluminum, and the temperature was raised to 500° C. at the rate of temperature rise of 10° C./min in a nitrogen gas stream (30 mL/min). The temperature corresponding to a descending peak appeared in the baseline was defined as the thermal decomposition temperature.

| SMILES | Solubility test of compound in safe solvent PGME [1] | Solubility test of compound in safe solvent PGMEA [1] | glass transition point [3] | thermal decomposition temperature [4] | solubility in MEK [2] |
| --- | --- | --- | --- | --- | --- |
| Oc1ccc2c3c(ccc2c1)Oc1ccc2cc(O)ccc2c1C3c1cc2ccccc2c2ccccc12 [XBisN-8] | A (A: 5.0% by weight≦dissolution amount) | A (A: 5.0% by weight≦dissolution amount) | 155 °C | 415 °C | B (Evaluation B: 10% by weigh or more and less than 50% by weight) |
| Oc1ccc2c3c(ccc2c1)Oc1ccc2cc(O)ccc2c1C3c1cc2cccc3ccc4cccc1c4c32 [XBisN-9] | A (A: 5.0% by weight≦dissolution amount) | A (A: 5.0% by weight≦dissolution amount) | 155 °C | 420 °C | B (Evaluation B: 10% by weigh or more and less than 50% by weight) |
| Oc1ccc2c3c(ccc2c1)Oc1ccc2cc(O)ccc2c1C31CCCCC1 [XBisN-10] | A (A: 5.0% by weight≦dissolution amount) | A (A: 5.0% by weight≦dissolution amount) | 140 °C | 400 °C | B (Evaluation B: 10% by weigh or more and less than 50% by weight) |
| Oc1ccc2c3c(ccc2c1)Oc1ccc2cc(O)ccc2c1C3c1ccc(C2c3c(ccc4cc(O)ccc34)Oc3ccc4cc(O)ccc4c32)cc1 [XBisN-12] | A (A: 5.0% by weight≦dissolution amount) | A (A: 5.0% by weight≦dissolution amount) | 152 °C | 410 °C | B (Evaluation B: 10% by weigh or more and less than 50% by weight) |
| Oc1ccc2c3c(ccc2c1)Oc1ccc2cc(O)ccc2c1C3c1ccc(-c2ccc(C3c4c(ccc5cc(O)ccc45)Oc4ccc5cc(O)ccc5c43)cc2)cc1 [XBisN-13] | A (A: 5.0% by weight≦dissolution amount) | A (A: 5.0% by weight≦dissolution amount) | 152 °C | 410 °C | B (Evaluation B: 10% by weigh or more and less than 50% by weight) |
| Oc1ccc2c3c(ccc2c1)Oc1ccc2cc(O)ccc2c1C3c1cc(C2c3c(ccc4cc(O)ccc34)Oc3ccc4cc(O)ccc4c32)cc(C2c3c(ccc4cc(O)ccc34)Oc3ccc4cc(O)ccc4c32)c1 [XBisN-14] | A (A: 5.0% by weight≦dissolution amount) | A (A: 5.0% by weight≦dissolution amount) | 152 °C | 410 °C | B (Evaluation B: 10% by weigh or more and less than 50% by weight) |

The next lines start with results.

| Solubility test of compound in safe solvent PGME [1] | Solubility test of compound in safe solvent PGMEA [1] | glass transition point [3] | thermal decomposition temperature [4] | SMILES | solubility in MEK [2] |
| --- | --- | --- | --- | --- | --- |
| A (A: 5.0% by weight≦dissolution amount) | A (A: 5.0% by weight≦dissolution amount) | 152 °C | 410 °C | Oc1cccc2c3c(ccc12)Oc1ccc2c(O)cccc2c1C3c1ccc(-c2ccccc2)cc1 [XBisN-4] | B (Evaluation B: 10% by weigh or more and less than 50% by weight) |
| A (A: 5.0% by weight≦dissolution amount) | A (A: 5.0% by weight≦dissolution amount) | 152 °C | 410 °C | Oc1ccc2ccc3c(c2c1)Oc1c(ccc2ccc(O)cc12)C3c1ccc(-c2ccccc2)cc1 [XBisN-5] | B (Evaluation B: 10% by weigh or more and less than 50% by weight) |
| A (A: 5.0% by weight≦dissolution amount) | A (A: 5.0% by weight≦dissolution amount) | 152 °C | 410 °C | Oc1cc2ccccc2c2c1Oc1c(O)cc3ccccc3c1C2c1ccc(-c2ccccc2)cc1 [XBisN-6] | B (Evaluation B: 10% by weigh or more and less than 50% by weight) |
| A (A: 5.0% by weight≦dissolution amount) | A (A: 5.0% by weight≦dissolution amount) | 155 °C | 415 °C | Oc1ccc2c3c(ccc2c1)Oc1ccc2cc(O)ccc2c1C3c1cccc2ccccc12 [XBisN-7] | B (Evaluation B: 10% by weigh or more and less than 50% by weight) |
| A (A: 5.0% by weight≦dissolution amount) | A (A: 5.0% by weight≦dissolution amount) | 145 °C | 450 °C | Oc1ccc2c3c(ccc2c1)Oc1ccc2cc(O)ccc2c1C31c2ccccc2-c2ccccc21 [XBisN-11] | B (Evaluation B: 10% by weigh or more and less than 50% by weight) |
